Molecules are shown by their SMILES.

A word on the melting point: it is the temperature of the solid-liquid transition. Take `Cc1sc(S(N)(=O)=O)cc1NC(=O)c1cnn2c(C(F)F)cc(-c3ccc(C(F)(F)F)cc3)nc12` [Example 48, 7-Difluoromethyl-5-(4-trifluoromethyl-phenyl)-pyrazolo[1,5-a]pyrimidine-3-carboxylic acid (2-methyl-5-sulfamoyl-thiophen-3-yl)-amide]: the melting point came out at 313 °C.

With `Cc1sc(S(=O)(=O)NC(C)(C)CO)cc1NC(=O)c1cnn2c(C(F)(F)F)cc(-c3ccc(C(F)(F)F)cc3)nc12` [Example 49, 7-Trifluoromethyl-5-(4-trifluoromethyl-phenyl)-pyrazolo[1,5-a]pyrimidine-3-carboxylic acid [5-(2-hydroxy-1,1-dimethyl-ethylsulfamoyl)-2-methyl-thiophen-3-yl]-amide], the melting point stood at 225 °C. In turn, `Cc1sc(S(=O)(=O)NC(C)(C)CO)cc1NC(=O)c1cnn2c(C(F)F)cc(-c3ccc(C(F)(F)F)cc3)nc12` [Example 50, 7-Difluoromethyl-5-(4-trifluoromethyl-phenyl)-pyrazolo[1,5-a]pyrimidine-3-carboxylic acid [5-(2-hydroxy-1,1-dimethyl-ethylsulfamoyl)-2-methyl-thiophen-3-yl]-amide] displayed a melting point of 180 °C. The compound `NS(=O)(=O)c1cnc(NC(=O)c2cnn3c(C(F)(F)F)cc(-c4ccc(C(F)(F)F)cc4)nc23)s1` [Example 51, 7-Trifluoromethyl-5-(4-trifluoromethyl-phenyl)-pyrazolo[1,5-a]pyrimidine-3-carboxylic acid (5-sulfamoyl-thiazol-2-yl)-amide] came in with a melting point of 309 °C.

For the compound `NS(=O)(=O)c1cnc(NC(=O)c2cnn3c(C(F)F)cc(-c4ccc(C(F)(F)F)cc4)nc23)s1` [Example 52, 7-Difluoromethyl-5-(4-trifluoromethyl-phenyl)-pyrazolo[1,5-a]pyrimidine-3-carboxylic acid (5-sulfamoyl-thiazol-2-yl)-amide], the melting point amounted to 311 °C. Then `CCOc1cc(-c2cc(C(F)(F)F)n3ncc(C(=O)Nc4nc(C)c(S(=O)(=O)NC(C)(CO)CO)s4)c3n2)ccc1C(F)(F)F` [Example 53, 5-(3-Ethoxy-4-trifluoromethyl-phenyl)-7-trifluoromethyl-pyrazolo[1,5-a]pyrimidine-3-carboxylic acid [5-(2-hydroxy-1-hydroxymethyl-1-methyl-ethylsulfamoyl)-4-methyl-thiazol-2-yl]-amide], with 220 °C. The compound `CN(C)CCNS(=O)(=O)c1cc(NC(=O)c2cnn3c(C(F)F)cc(-c4ccc(C(F)(F)F)cc4)nc23)c(Cl)s1` [Example 54, 7-Difluoromethyl-5-(4-trifluoromethyl-phenyl)-pyrazolo[1,5-a]pyrimidine-3-carboxylic acid [2-chloro-5-(2-dimethylamino-ethylsulfamoyl)-thiophen-3-yl]-amide] returned a melting point of 162 °C. Take `CN(C)CCNS(=O)(=O)c1cc(NC(=O)c2cnn3c(C(F)(F)F)cc(-c4ccc(C(F)(F)F)cc4)nc23)c(Cl)s1` [Example 55, 7-Trifluoromethyl-5-(4-trifluoromethyl-phenyl)-pyrazolo[1,5-a]pyrimidine-3-carboxylic acid [2-chloro-5-(2-dimethylamino-ethylsulfamoyl)-thiophen-3-yl]-amide]: the melting point amounted to 198 °C.

As to `CCOc1cc(-c2cc(C(F)(F)F)n3ncc(C(=O)Nc4cc(S(=O)(=O)NCCO)sc4Cl)c3n2)ccc1C(F)(F)F` [Example 56, 5-(3-Ethoxy-4-trifluoromethyl-phenyl)-7-trifluoromethyl-pyrazolo[1,5-a]pyrimidine-3-carboxylic acid [2-chloro-5-(2-hydroxy-ethylsulfamoyl)-thiophen-3-yl]-amide], the melting point turned out to be 250 °C. In turn, `Cc1nc(NC(=O)c2cnn3c(C(F)F)cc(-c4ccc(C(F)(F)F)cc4)nc23)sc1S(=O)(=O)NCCN(C)C` [Example 57, 7-Difluoromethyl-5-(4-trifluoromethyl-phenyl)-pyrazolo[1,5-a]pyrimidine-3-carboxylic acid [5-(2-dimethylamino-ethylsulfamoyl)-4-methyl-thiazol-2-yl]-amide] came in with a melting point of 217 °C.

The compound `Cc1nc(NC(=O)c2cnn3c(C(F)(F)F)cc(-c4ccc(C(F)(F)F)cc4)nc23)sc1S(=O)(=O)NCCN(C)C` [Example 58, 7-Trifluoromethyl-5-(4-trifluoromethyl-phenyl)-pyrazolo[1,5-a]pyrimidine-3-carboxylic acid [5-(2-dimethylamino-ethylsulfamoyl)-4-methyl-thiazol-2-yl]-amide] returned a melting point of 235 °C.

On to `CC(C)(CO)NS(=O)(=O)c1cnc(NC(=O)c2cnn3c(C(F)(F)F)cc(-c4ccc(C(F)(F)F)cc4)nc23)s1` [Example 59, 7-Trifluoromethyl-5-(4-trifluoromethyl-phenyl)-pyrazolo[1,5-a]pyrimidine-3-carboxylic acid [5-(2-hydroxy-1,1-dimethyl-ethylsulfamoyl)-thiazol-2-yl]-amide], for which the melting point amounted to 292 °C. With `CC(C)(CO)NS(=O)(=O)c1cnc(NC(=O)c2cnn3c(C(F)F)cc(-c4ccc(C(F)(F)F)cc4)nc23)s1` [Example 60, 7-Difluoromethyl-5-(4-trifluoromethyl-phenyl)-pyrazolo[1,5-a]pyrimidine-3-carboxylic acid [5-(2-hydroxy-1,1-dimethyl-ethylsulfamoyl)-thiazol-2-yl]-amide], the melting point amounted to 280 °C. In turn, `CC(C)(CO)NS(=O)(=O)c1cc(NC(=O)c2cnn3c(C4CC4)cc(-c4ccc(Cl)cc4)nc23)c(Cl)s1` [Example 61, 5-(4-Chloro-phenyl)-7-cyclopropyl-pyrazolo[1,5-a]pyrimidine-3-carboxylic acid [2-chloro-5-(2-hydroxy-1,1-dimethyl-ethylsulfamoyl)-thiophen-3-yl]-amide] had a melting point of 238 to 241 °C.

Compound `Cc1nc(NC(=O)c2cnn3c(C4CC4)cc(-c4ccc(Cl)cc4)nc23)sc1S(=O)(=O)NC(C)(C)CO` [Example 62, 5-(4-Chloro-phenyl)-7-cyclopropyl-pyrazolo[1,5-a]pyrimidine-3-carboxylic acid [5-(2-hydroxy-1,1-dimethyl-ethylsulfamoyl)-4-methyl-thiazol-2-yl]-amide] yielded a melting point of 293 to 294 °C. Then `Cc1nc(NC(=O)c2cnn3c(C(F)F)cc(-c4ccc(C(F)(F)F)cc4)nc23)sc1S(=O)(=O)NC(CO)CO` [Example 63, 7-Difluoromethyl-5-(4-trifluoromethyl-phenyl)-pyrazolo[1,5-a]pyrimidine-3-carboxylic acid [5-(2-hydroxy-1-hydroxymethyl-ethylsulfamoyl)-4-methyl-thiazol-2-yl]-amide], with 217 °C. `Cc1nc(NC(=O)c2cnn3c(C(F)(F)F)cc(-c4ccc(C(F)(F)F)cc4)nc23)sc1S(=O)(=O)NC(CO)CO` [Example 64, 7-Trifluoromethyl-5-(4-trifluoromethyl-phenyl)-pyrazolo[1,5-a]pyrimidine-3-carboxylic acid [5-(2-hydroxy-1-hydroxymethyl-ethylsulfamoyl)-4-methyl-thiazol-2-yl]-amide]: the melting point worked out at 215 °C. With `NCCNS(=O)(=O)c1cc(NC(=O)c2cnn3c(C(F)F)cc(-c4ccc(C(F)(F)F)cc4)nc23)c(Cl)s1` [Example 65, 7-Difluoromethyl-5-(4-trifluoromethyl-phenyl)-pyrazolo[1,5-a]pyrimidine-3-carboxylic acid [5-(2-amino-ethylsulfamoyl)-2-chloro-thiophen-3-yl]-amide], the melting point is 150 °C.

The values above are taken from patent US7361659B2, “Pyrrazolo-pyrimidine derivatives” (Hoffmann-La Roche Inc., priority 2005, dated 2008).
